Results from publication PMC10135569, “Does Enhanced Structural Maturity of hiPSC-Cardiomyocytes Better for the Detection of Drug-Induced Cardiotoxicity?” (Biomolecules, 2023).

Assays:
[1] = system: hiPSC-CMs (iCell2 Cardiomyocytes) 2D monolayers; assay: Membrane potential (action potential) recordings with FluoVolt voltage-sensitive dye on the CellOPTIQ platform; type: cell-based, human; conditions: for activity at 0.01 µM / activity at 0.03 µM / activity at 0.1 µM / activity at 0.3 µM: Homo sapiens, Cardiomyocyte, 0.5 h, 30 min, delta over DMSO 0.1%
Outline: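 iCell2 hiPSC-CM monolayers (50,000 cells/well on fibronectin or Matrix Plus, days 5–6) were loaded with FluoVolt (1:1000, 20 min, 37 °C) and imaged at 37 °C with 470 nm excitation and 510–560 nm emission sampled at 10 kHz. Spontaneous action potentials were recorded for 10 s at baseline and 30 min after drug, with one of four concentrations per well (n = 8).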

[2] = system: hiPSC-CMs (iCell2 Cardiomyocytes) 2D monolayers; assay: Contractility measurements using video imaging (ContractilityTool / MUSCLEMOTION); type: cell-based, human; conditions: for activity at 0.01 µM / activity at 0.03 µM / activity at 0.1 µM / activity at 0.3 µM: Homo sapiens, Cardiomyocyte, 0.5 h, 30 min, delta over DMSO 0.1%
Outline: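 Monolayers on fibronectin or Matrix Plus coating, tested on days 5–6 in serum-free medium. Four concentrations, one per well, n = 8, with vehicle control.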

[3] = 300 nM, both 2D systems, positive control
[4] = FM monolayer, read-out: APD30 (%DD)
[5] = FM monolayer, read-out: APD90 (%DD)
[6] = FM monolayer, read-out: CL (%DD)
[7] = FM monolayer, read-out: Trise (%DD)
[8] = MM monolayer, read-out: APD30 (%DD)
[9] = MM monolayer, read-out: APD90 (%DD)
[10] = MM monolayer, read-out: CL (%DD)
[11] = MM monolayer, read-out: Trise (%DD)
[12] = FM monolayer, read-out: CtAmp (%DD)
[13] = FM monolayer, read-out: CtD50 (%DD)
[14] = MM monolayer, read-out: CtAmp (%DD)
[15] = MM monolayer, read-out: CtD50 (%DD)

## CC(C)NCC(O)c1ccc(O)c(O)c1 (stereo not shown) [Isoprenaline]
[1]; [3]
  effect on APD90: decreased
  effect on spontaneous beat rate: increased
[1]; [4]
  activity at 0.01 µM: 97 ± 2%
  activity at 0.03 µM: 85 ± 1.7%
  activity at 0.1 µM: 68 ± 0.8%
  activity at 0.3 µM: 62 ± 1%
[1]; [5]
  activity at 0.01 µM: 94 ± 1.9%
  activity at 0.03 µM: 77 ± 0.6%
  activity at 0.1 µM: 60 ± 1%
  activity at 0.3 µM: 52 ± 0.5%
[1]; [6]
  activity at 0.01 µM: 90 ± 1.4%
  activity at 0.03 µM: 74 ± 0.6%
  activity at 0.1 µM: 56 ± 0.6%
  activity at 0.3 µM: 49 ± 0.6%
[1]; [7]
  activity at 0.01 µM: 80 ± 7.3%
  activity at 0.03 µM: 97 ± 8.6%
  activity at 0.1 µM: 106 ± 4.5%
  activity at 0.3 µM: 106 ± 8.1%
[1]; [8]
  activity at 0.01 µM: 92 ± 0.8%
  activity at 0.03 µM: 83 ± 0.9%
  activity at 0.1 µM: 68 ± 1.5%
  activity at 0.3 µM: 62 ± 0.8%
[1]; [9]
  activity at 0.01 µM: 96 ± 0.8%
  activity at 0.03 µM: 86 ± 1%
  activity at 0.1 µM: 68 ± 1.2%
  activity at 0.3 µM: 61 ± 0.9%
[1]; [10]
  activity at 0.01 µM: 90 ± 0.9%
  activity at 0.03 µM: 77 ± 0.6%
  activity at 0.1 µM: 63 ± 0.8%
  activity at 0.3 µM: 56 ± 0.8%
[1]; [11]
  activity at 0.01 µM: 146 ± 13.3%
  activity at 0.03 µM: 115 ± 12.9%
  activity at 0.1 µM: 93 ± 5.5%
  activity at 0.3 µM: 129 ± 10.9%
[1]; both FM and MM monolayers, concentration not given
  effect on APD90 (in words): significantly decreased
[2]; [3]
  effect on contraction duration: decreased
[2]; [12]
  activity at 0.01 µM: 94 ± 5.2%
  activity at 0.03 µM: 90 ± 8.3%
  activity at 0.1 µM: 125 ± 17.9%
  activity at 0.3 µM: 68 ± 8.5%
[2]; [13]
  activity at 0.01 µM: 94 ± 1%
  activity at 0.03 µM: 88 ± 4.6%
  activity at 0.1 µM: 76 ± 2.8%
  activity at 0.3 µM: 58 ± 1.6%
[2]; [14]
  activity at 0.01 µM: 123 ± 14.4%
  activity at 0.03 µM: 112 ± 11.7%
  activity at 0.1 µM: 121 ± 16.1%
  activity at 0.3 µM: 105 ± 14.9%
[2]; [15]
  activity at 0.01 µM: 96 ± 2.3%
  activity at 0.03 µM: 88 ± 2.3%
  activity at 0.1 µM: 68 ± 2.7%
  activity at 0.3 µM: 57 ± 1.8%
